Experiment [1] has as its system HUVECs. Description: Electrical Cell-substrate Impedance Sensing (ECIS) of HUVEC monolayers, thrombin stimulation. Format: cell-based, human. As for the experimental part: (§1) For ECIS measurements, cells were trypsinized and seeded in 1:1 density on gelatine-coated ECIS arrays, each containing 8 wells with 10 gold electrodes/well (8 W10E, Applied Biophysics, Troy, N.Y., USA). Culture medium was refreshed 24 h after seeding, while experiments were performed 48 h after seeding. For pretreatment, designated pharmacological inhibitors or vector were dissolved in M199 supplemented with 1% HSA. After 90 min of pretreatment, thrombin was added directly to the cells for a final concentration of 1 U/mL. During stimulation impedance was measured at multiple frequencies to allow for calculation of resistance attributable to cell-cell adhesion (Rb) and resistance attributable to cell-matrix interaction (alpha). The absolute resistance was measured, while the relative resistance was calculated by normalization to the time point just before addition of the thrombin, to correct for baseline differences.

Experiment [2] relates to HUVECs. The experiment is described as follows: HRP passage across thrombin-stimulated HUVEC monolayers on porous filters. Type of experiment: cell-based, human. Conditions: for effect on thrombin-induced HRP passage: HUVECs. On the procedure: (§2) Endothelial barrier function was evaluated with horse radish peroxidase (HRP) passage and Electrical Cell-substrate Impedance Sensing (ECIS). For measurement of HRP passage, confluent cells were seeded in 1:1 density on 0.33 cm^2 Costar polycarbonate filters, pore-size 3.0 μm (Corning, Lowell, Mass., USA) and grown to confluence in 4 or 5 days, with change of culture medium every other day. For pretreatment, pharmacological inhibitors or vector were dissolved in M199 supplemented with 1% human serum albumin (HSA, Sanquin CLB), and after removal of culture medium, solutions were added to the upper compartment of the filters during 60 min. For stimulation, pretreatment medium was changed for 1% HSA/M199 containing designated inhibitors, HRP 5 μg/mL (Sigma Aldrich) and thrombin 1 U/mL. 1% HSA/M199 was added to the lower compartment. At indicated time points samples were taken from the lower compartment; HRP concentration in samples was detected by measuring chemoluminiscence after addition of TMB/E (Upstate/Millipore).

For experiment [3], the system named is human pulmonary microvascular endothelial cells (HPMVECs). Description: HRP passage over HPMVEC monolayers, thrombin stimulation. Format: cell-based. Conditions: imatinib 10 μM, thrombin 1 U/mL. On the procedure:
as §2

For experiment [4] the test system is unchanged. Description: ECIS of HPMVEC monolayers, thrombin stimulation. Type of experiment: cell-based. Conditions: imatinib 10 μM, thrombin 1 U/mL. On the procedure: as §1
The test system of experiment [5] is human foreskin microvascular endothelial cells (HFMVECs). The experiment is described as follows: ECIS of HFMVEC monolayers, thrombin stimulation. Format: cell-based. Conditions: imatinib 10 μM, thrombin 1 U/mL. On the procedure: as §1
For experiment [6], the system named is HUVECs. Description: Immunofluorescence staining of VE-cadherin, β-catenin and F-actin in thrombin-stimulated HUVECs. Format: cell-based, human. On the procedure: Cells were seeded on glass coverslips coated with gelatine 1% and pretreated with glutaraldehyde 0.5% (Fluka, St. Gallen, Switzerland). Cells were seeded in 1:1 density and grown to confluence in 48-72 hours. For pretreatment, culture medium was changed to 1% HSA/M199, containing pharmacological inhibitors or vector. After 60 min of pretreatment, thrombin was added directly to the wells for a final concentration of 1 U/mL. At indicated time points, medium was removed and warm paraformaldehyde 2% (Sigma Aldrich) was added to the cells, while kept on ice for 15 min. Cells were permeabilized with Triton X-100 0.05% (Sigma Aldrich) in phosphate-buffered saline (PBS), and incubated overnight with primary antibodies for β-catenin (1:100), VE-cadherin (1:400) or Arg (1:150) in 0.1% HSA/PBS. Subsequently, cells were washed and incubated with FITC-labeled secondary antibodies (Invitrogen, Paisly, United Kingdom) and rhodamine/phalloidin (Invitrogen) for 1 h at room temperature. Cells were washed and sealed in Vectashield mounting medium containing DAPI (Vector Laboratories Inc., Burlingham, Calif., USA) for nuclear staining. Immunofluorescent imaging was performed with an Axiovert 200 Marianas™ inverted wide-field fluorescence microscope, using a 40× Zeiss air lens (NA 0.75) and a 63× Zeiss oil lens (NA 1.4). […]

The subject of a further experiment is RhoA. Description: G-LISA RhoA Activity Assay in HUVEC lysates. Conditions: HUVECs; imatinib 10 μM; thrombin 1 U/mL. Format: cell-based, human. As for the experimental part:
After stimulation, cells were washed with ice-cold PBS and lysed with lysis buffer containing […] Tris/HCl pH 8.0, 0.15M NaCl, 0.09M KCl, 2 mM EDTA/NaOH pH 8.0, 5% Igepal, and 0.5% Triton X-100, further supplemented with PhosStop […] inhibitor (Roche Diagnostics, Mannheim, Germany), and Complete EDTA-free […] inhibitor (Roche Diagnostics). After centrifugation of the cell lysates, the supernatant was snap-frozen and stored at −80° C. Relative RhoA activity was determined with a G-LISA RhoA Activity Assay (Cytoskeleton Inc, Denver, Colo., USA), according to the manufacturers protocol.

[7] abbreviates: HUVECs transfected with Arg siRNA, imatinib 10 μM, thrombin 1 U/mL.
[8] abbreviates: HUVECs, imatinib 10 μM, thrombin 1 U/mL.

On to `COc1cc2ncc(-c3ccccc3)nc2cc1OC` [AG1296], for which the “basal endothelial barrier function / basal endothelial resistance (ECIS)” value in the experiment on HUVECs [1] (HUVECs, no thrombin) is given as “improved”. Besides, the “effect on thrombin-induced decrease in endothelial resistance (thrombin response, words)” value (“effect on thrombin-induced decrease” for short) in the experiment on HUVECs [1] (HUVECs, thrombin 1 U/mL) was “did not inhibit”.

Consider `C[C@@H](N)[C@H]1CC[C@H](C(=O)Nc2ccncc2)CC1` [Y-27632], for which the “effect on thrombin-induced HRP passage” value with HUVECs [2] (thrombin 1 U/mL) was “reduced”. Moreover, the “effect on thrombin-induced decrease” value with HUVECs [1] (HUVECs, thrombin 1 U/mL) is listed as “reduced”.

As for `Cc1ccc(NC(=O)c2ccc(CN3CCN(C)CC3)cc2)cc1Nc1nccc(-c2cccnc2)n1` [imatinib, 4-[(4-methyl-1-piperazinyl)methyl]-N-[4-methyl-3-[[(4-(3-pyridinyl)-2-pyrimidinyl]amino]-phenyl]benzamidemethane sulfonate], the “HRP passage in Arg deficient cells, imatinib vs DMSO pretreatment” value in the experiment with HUVECs [2] (setting [7]) is listed as “significantly lower”. Besides, the “effect on thrombin-induced HRP passage” value in the experiment on HUVECs [2] (thrombin 1 U/mL) is “reduced”. Also, in the experiment with HUVECs [2] (Homo sapiens, HUVEC, read-out: inhibition of thrombin-induced HRP passage), the inhibition at 10 µM is 35 to 44%. In addition, the “decrease in normalized resistance in Arg deficient cells, imatinib pretreatment” value in the experiment with HUVECs [1] (setting [7]) is “no additive effect”. The “thrombin response in c-Abl deficient cells” value in the experiment with HUVECs [1] (HUVECs transfected with c-Abl siRNA, imatinib 10 μM, thrombin 1 U/mL) is “still attenuated”. In the experiment on HUVECs [1] (HUVECs, imatinib 10 μM, Y-27632 10 μM, thrombin 1 U/mL, FIGS. 2C and D), the “maximal drop in electrical resistance” value is on record as −0.44±0.02. In the experiment with HUVECs [1] (setting [8]), the “maximal decrease in normalized Rb (cell-cell interaction)” value is on record as −0.87±0.03 and the “thrombin-induced drop in cell-matrix interaction (alpha)” value is given as “attenuation”. Moreover, in the experiment on HUVECs [1] (HUVECs, thrombin 1 U/mL), the “effect on thrombin-induced decrease” value was “reduced”. In the experiment with HUVECs [1] (HUVECs, thrombin 1 U/mL, FIGS. 1B and 1C), the “maximal decrease in normalized resistance” value was −0.41±0.03. In the experiment with HUVECs [1] (HUVECs, thrombin 1 U/mL, listed as Imatinib), the “effect on thrombin-induced decrease” value is on record as “attenuated”. Moreover, in experiment [3], the thrombin-induced macromolecule passage result is reported as “reduced”. The “maximal drop in endothelial resistance” value in experiment [4] is reported as “attenuated”. In addition, the “effects on Rb and alpha” value in experiment [4] (compared with HUVECs) is recorded as “Comparable effects”. Also, in experiment [5], the “thrombin-induced maximal drop in endothelial resistance” value is “attenuated”. Also, the “thrombin-induced loss of VE-cadherin and β-catenin from the membrane” value in the experiment with HUVECs [6] (imatinib 10 μM, thrombin 30 min) is given as “partly reversed”. In addition, the “F-actin organization after thrombin” value in the experiment with HUVECs [6] (imatinib pretreated, thrombin 15 min) is “not organized in F-actin stress fibers”. Further, the “thrombin-induced RhoA activity” value in the experiment with RhoA is recorded as “not affected”.

The term inhibition denotes the share of the control response that was lost under treatment.

The record behind these values is patent publication US9290765B2, “Protection against endothelial barrier dysfunction through inhibition of the tyrosine kinase abl-related gene (ARG)” (VERENIGING VOOR CHRISTELIJK HOGER ONDERWIJS, …, priority 2011, dated 2016).
